US20220363649A1, “ORGANIC COMPOUNDS” (Rutgers, The State University of New Jersey, priority 2018, published 2022)
pKi: −log10 of the molar value. Where two headings read alike, the source gives them in different places.

How the values were obtained:
S1R = target: T1, S1R (Cavia porcellus, UniProt Q60492); experiment: S1R radiolabeled binding assay, guinea pig whole brain, [3H]-pentazocine
T1 construct: performed using Guinea pig whole brain according to the protocol previously reported; from tissue; host or cells: guinea pig whole brain membrane preparations
Procedure: Following 1 h incubation at 25° C., the binding assay was terminated by addition of cold buffer. The mixture was then filtered through Whatman GF/B filters and washed with cold buffer. Radioactivity was identified using the liquid scintillation counter.
Receptor binding data were analyzed by nonlinear regression of saturation and competition curves using the GraphPad Prism 7.0 software (GraphPad Software, La Jolla, Calif.).
(§1) Radiolabeled binding assays were conducted using two different species.

human S1R = target: T2, human S1R (Homo sapiens, UniProt Q99720); experiment: Human S1R radiolabeled binding assay, human jurkat cell membranes, [3H]-pentazocine; settings: human membranes (Compounds 10-76)
T2 construct: experimentally determined in human jurkat cell membranes using 15.0 nM; endogenous in cells; host or cells: human Jurkat cell membranes
Procedure: The binding process was terminated by addition of cold buffer. Then, the mixture was filtered and washed with cold buffer. Radioactivity was identified using the TopCount NTX liquid scintillation counter (PerkinElmer, Waltham, Mass.).
as §1

human S2R = target: T3, human S2R (Homo sapiens, UniProt Q5BJF2); experiment: Human S2R radiolabeled binding assay, Jurkat Clone E6-1 cell membranes, [3H] DTG; settings: for pKi: human membranes (Compounds 10-76); for S2R % at 1 μM: human membranes
T3 construct: performed using Jurkat cell line Clone E6-1 cells with 0.025 μM; endogenous in cells; host or cells: Jurkat Clone E6-1 cell membranes
Procedure: The radiolabeled binding assay of the human S1R and S2R were performed using human jurkat cell membranes according to the protocol previously reported (Ganapathy, et al., 1999, J. Pharmacol. Exp. Ther. 289:251-60).
DTG as radioligand. […] The cells were incubated in RPMI 1640 Medium with 10% FBS, 100 U/ml penicillin and […] streptomycin. After incubation, the cells were suspended in 5 mM potassium phosphate buffer (pH=7.6). The membrane protein concentration was controlled at 5 mg/mL. The collected membrane protein was incubated with ligands in potassium phosphate buffer for 1 hour at room temperature and terminated by adding ice-cold buffer. Then the mixture is filtered with 0.7 μm syringe filter and washed three times. The radioactivity is determined by liquid scintillation spectrometry.
Radiolabeled binding assays were conducted using two different species. Compounds 1-9 were assayed using guinea pig brain membranes for the binding assays. Compounds 10-76 were assayed using human brain membranes for the binding assays.

[1] = guinea pig brain membranes (Compounds 1-9), read-out: S1R Ki

T3 sequence (Q5BJF2 whole entry): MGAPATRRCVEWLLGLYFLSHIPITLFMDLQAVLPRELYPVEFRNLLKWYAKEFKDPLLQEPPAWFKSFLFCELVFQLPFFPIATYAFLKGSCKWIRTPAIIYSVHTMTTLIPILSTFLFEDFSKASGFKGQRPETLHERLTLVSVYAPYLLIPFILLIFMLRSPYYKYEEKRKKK
T1 sequence (Q60492 whole entry): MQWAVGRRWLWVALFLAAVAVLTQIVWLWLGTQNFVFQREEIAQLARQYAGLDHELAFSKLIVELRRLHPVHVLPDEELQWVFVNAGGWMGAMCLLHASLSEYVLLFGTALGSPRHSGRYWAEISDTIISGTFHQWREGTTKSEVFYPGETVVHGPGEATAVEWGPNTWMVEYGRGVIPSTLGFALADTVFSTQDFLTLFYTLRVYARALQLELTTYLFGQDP
T2 sequence (Q99720 whole entry): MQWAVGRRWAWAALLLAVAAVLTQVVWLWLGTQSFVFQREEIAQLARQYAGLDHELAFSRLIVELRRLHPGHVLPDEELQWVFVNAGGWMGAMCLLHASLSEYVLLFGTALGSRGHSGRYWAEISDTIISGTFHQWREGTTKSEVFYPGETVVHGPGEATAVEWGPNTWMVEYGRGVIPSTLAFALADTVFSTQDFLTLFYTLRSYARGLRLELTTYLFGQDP

pKi (human S1R) | pKi (human S2R) | SMILES | also measured
7.66 | < 6.00 | Cn1nc(CN2CCCC2)nc1-c1ccc(Cl)c(Cl)c1 [Compound 11, 5-(3,4-dichlorophenyl)-1-methyl-3-(pyrrolidin-1-ylmethyl)-1H-1,2,4-triazole] | –
7.68 | < 6.00 | Cc1cc(-c2nc(CN3CCCC3)nn2C)ccc1C(F)(F)F [Compound 13, 1-methyl-5-(3-methyl-4-(trifluoromethyl)phenyl)-3-(pyrrolidin-1-ylmethyl)-1H-1,2,4-triazole] | –
7.45 | < 6.00 | Cn1nc(CN2CCCC2)nc1-c1ccc2c(c1)CCCC2 [Compound 15, 1-methyl-3-(pyrrolidin-1-ylmethyl)-5-(5,6,7,8-tetrahydronaphthalen-2-yl)-1H-1,2,4-triazole] | –
7.49 | < 6.00 | Cn1nc(CN2CCCC2)nc1-c1cccc(C2(C(F)(F)F)CC2)c1 [Compound 17, 1-methyl-3-(pyrrolidin-1-ylmethyl)-5-(3-(1-(trifluoromethyl)cyclopropyl)phenyl)-1H-1,2,4-triazole] | –
7.43 | < 6.00 | Cn1nc(CN2CCCC2)nc1-c1ccc2cc(Cl)sc2c1 [Compound 25, 5-(2-chlorobenzo[b]thiophen-6-yl)-1-methyl-3-(pyrrolidin-1-ylmethyl)-1H-1,2,4-triazole] | –
9.05 | 6.72 | Cn1nc(CN2CCC(C)(C)C2)nc1-c1ccc(C(C)(C)C)cc1 [Compound 26, 5-(4-(tert-butyl)phenyl)-3-((3,3-dimethylpyrrolidin-1-yl)methyl)-1-methyl-1H-1,2,4-triazole] | –
8.32 | 5.77 | CCn1nc(CN2CCCC2)nc1-c1ccc(C(C)(C)C)cc1 [Compound 30, 5-(4-(tert-butyl)phenyl)-1-ethyl-3-(pyrrolidin-1-ylmethyl)-1H-1,2,4-triazole] | –
7.86 | 6.12 | CC(C)(C)c1ccc(-c2nc(CN3CCCC3)nn2C2CC2)cc1 [Compound 32, 5-(4-(tert-butyl)phenyl)-1-cyclopropyl-3-(pyrrolidin-1-ylmethyl)-1H-1,2,4-triazole] | –
9.28 | – | CCn1nc(CN2CCC3(CCCC3)C2)nc1-c1ccc(C(C)(C)C)cc1 [Compound 65, 2-((5-(4-(tert-butyl)phenyl)-1-ethyl-1H-1,2,4-triazol-3-yl)methyl)-2-azaspiro[4.4]nonane] | S2R % at 1 μM (human S2R): 96% at 1 μM
9.24 | – | CCn1nc(CN2CC3CCCC3C2)nc1-c1ccc(C(C)(C)C)cc1 (stereo not shown) [Compound 66, 2-((5-(4-(tert-butyl)pheny)-1-ethyl-1H-1,2,4-triazol-3-yl)methyl)octahydrocyclopenta[c]pyrrole] | S2R % at 1 μM (human S2R): 73% at 1 μM
9.25 | – | CC(C)(C)c1ccc(-c2nc(CN3CCC4(CCCC4)C3)nn2C2CC2)cc1 [Compound 75, 2-((5-(4-(tert-butyl)phenyl)-1-cyclopropyl-1H-1,2,4-triazol-3-yl)methyl)-2-azaspiro[4.4]nonane] | S2R % at 1 μM (human S2R): 105% at 1 μM

Further lines, the molecule ahead of its results:

SMILES | pKi (human S1R) | pKi (human S2R) | also measured
Cn1nc(CN2CCCCC2)nc1-c1ccc(C(C)(C)C)cc1 [Compound 1, 1-((5-(4-(tert-butyl)phenyl)-1-methyl-1H-1,2,4-triazol-3-yl)methyl)piperidine] | – | – | pKi (S1R; [1]): 8.43
Cn1nc(CN2CCOCC2)nc1-c1ccc(C(C)(C)C)cc1 [Compound 2, 4-((5-(4-(tert-butyl)phenyl)-1-methyl-1H-1,2,4-triazol-3-yl)methyl)morpholine] | – | – | pKi (S1R; [1]): 7.25
CN1CCN(Cc2nc(-c3ccc(C(C)(C)C)cc3)n(C)n2)CC1 [Compound 3, 1-((5-(4-(tert-butyl)phenyl)-1-methyl-1H-1,2,4-triazol-3-yl)methyl)-4-methylpiperazine] | – | – | pKi (S1R; [1]): 6.88
Cn1nc(CN2CCN(c3ccccc3)CC2)nc1-c1ccc(C(C)(C)C)cc1 [Compound 4, 1-((5-(4-(tert-butyl)phenyl)-1-methyl-1H-1,2,4-triazol-3-yl)methyl)-4-phenylpiperazine] | – | – | pKi (S1R): 7.84
Cn1nc(CN2CCN(CCc3ccccc3)CC2)nc1-c1ccc(C(C)(C)C)cc1 [Compound 5, 1-((5-(4-(tert-butyl)phenyl)-1-methyl-1H-1,2,4-triazol-3-yl)methyl)-4-phenethylpiperazine] | – | – | pKi (S1R): 7.99
Cn1nc(CN2CCN(Cc3ccccc3)CC2)nc1-c1ccc(C(C)(C)C)cc1 [Compound 6, 1-benzyl-4-((5-(4-(tert-butyl)phenyl)-1-methyl-1H-1,2,4-triazol-3-yl)methyl)piperazine] | – | – | pKi (S1R; [1]): 8.26
Cn1nc(CN2CCC(Cc3ccccc3)CC2)nc1-c1ccc(C(C)(C)C)cc1 [Compound 7, 4-benzyl-1-((5-(4-(tert-butyl)phenyl)-1-methyl-1H-1,2,4-triazol-3-yl)methyl)piperidine] | – | – | pKi (S1R; [1]): 8.69
CN(Cc1nc(-c2ccc(C(C)(C)C)cc2)n(C)n1)CC1CC1 [Compound 9, 1-(5-(4-(tert-butyl)phenyl)-1-methyl-1H-1,2,4-triazol-3-yl)-N-(cyclopropylmethyl)-N-methylmethanamine] | – | – | pKi (S1R; [1]): 9.21
Cn1nc(CN2CCCC2)nc1-c1ccc(C2(C(F)(F)F)CC2)cc1 [Compound 10, 1-methyl-3-(pyrrolidin-1-ylmethyl)-5-(4-(1-(trifluoromethyl)cyclopropyl)phenyl)-1H-1,2,4-triazole] | 8.00 | < 6.00 | –
CC(C)n1nc(CN2CCCC2)nc1-c1ccc(C(C)(C)C)cc1 [Compound 31, 5-(4-(tert-butyl)phenyl)-1-isopropyl-3-(pyrrolidin-1-ylmethyl)-1H-1,2,4-triazole] | 8.67 | 5.84 | –
